Key:
HepG2 cells = experiment: Confocal imaging with copper sensing CF4 fluorescent probe; format: cell-based; details: HepG2, 100 μM Gal-Cu(gtsm) or 2 μM Cu(gtsm), 3 hours
Procedure: Confocal fluorescence images were acquired with a Zeiss LSM710 laser-scanning microscope with a 20× objective lens. Excitation at 543 nm for CF4 was carried out with appropriate lasers, and emission was acquired from 550 to 650 nm. HepG2 cells were plated between 50-80% confluency in 8-well glass chamber slides with gelatin coating. Cells were incubated with either vehicle, Cu(gtsm), or Gal-Cu(gtsm) for 3 hours in low glucose DMEM. The media was then aspirated and replaced with CF4 or Ctrl-CF4-S2 (2 μM freshly diluted from a 1 mM stock solution) in DPBS with calcium and magnesium, then incubated at 37° C. for 30 minutes. The buffer was then replaced with fresh DPBS (+Ca, +Mg) for imaging. Image analysis and quantification was performed using ImageJ (National Institutes of Health). Mean fluorescence intensity was analyzed with a minimum threshold of 20 pixels and maximum threshold of 255 pixels.

[1] = system: HEK 293T (no ASGPR expression) cells; experiment: Cellular copper delivery by ICP-MS, HEK 293T; format: cell-based; details: 4 μM, three hours, serum-free DMEM
Procedure: Cells were maintained by the UC Berkeley Tissue Culture Facility. HEK 293T and HepG2 cells were maintained as a monolayer in exponential growth at 37° C. in a 5% CO2 atmosphere. HEK 293T cells were maintained in Dulbecco's Modified Eagle Medium (DMEM, Gibco) supplemented with 10% fetal bovine serum (FBS, Hyclone), and glutamax (Gibco). HepG2 cells were maintained in low glucose DMEM with L-glutamine and sodium pyruvate (Gibco). One day before ionophore treatment, cells were passaged and plated in DMEM with glutamax supplemented with 10% FBS on either poly D-lysine-coated (HEK 293T) or gelatin-coated (HepG2) sterile 6-well Corning polystyrene plates. Cells were grown to 60 to 80% confluency prior to ionophore treatment.
Cells were washed twice with serum-free DMEM. 2 mM stock solutions of Cu(gtsm) or Gal-Cu(gtsm) were diluted in serum-free DMEM to a final ionophore concentration of 4 μM. […] Samples (150 μL) were further diluted in 2 mL 2% nitric acid (made freshly from concentrated nitric acid and Milli-Q water) in 15 mL tubes (Sarstedt) and analyzed on a Thermo Fisher iCAP Qc ICP mass spectrometer in kinetic energy discrimination (KED) mode against a standard curve of known copper and phosphorus concentrations (CMS-5, Inorganic Ventures), with Ga (20 μg/L, Inorganic Ventures) as an internal standard. […]

[2] = Dynamic light scattering, colloidal aggregate formation; format: physicochemical
Procedure: To assess colloidal aggregate formation, Gal-Cu(gtsm) was dissolved in PBS (pH 7.4) to a final concentration of 1 mM. The hydrodynamic diameter (DH) of the formed colloidal particles were determined by dynamic light scattering (DLS) obtained on a Zetasizer® Nano Series (Malvern Instruments, UK) and reported as the number-weighted mean. Samples were filtered with a 0.2 μm syringe filter and measured with a disposable ZEN0040 cuvette. Peaks of varying sizes were found, indicating a polydisperse formation of Gal-Cu(gtsm) aggregates. Measurements were taken in triplicate. Error is reported as the standard deviation from three separate replicates.

ATP7B = experiment: Western blot of liver lysates, ATP7B; format: in vivo, mouse; details: 6 and 24 hours
Procedure: Frozen mouse livers were minced into 50 mg samples on dry ice and homogenized in ice-cold RIPA buffer (25 mM Tris.HCl pH 7.6, 150 mM NaCl, 1% NP-40, 1% sodium deoxycholate, 0.1% SDS) containing protease inhibitor cocktail with EDTA (Roche) at 100 mg/mL using a hand-held mechanical homogenizer. Homogenates were incubated on ice for 30 min and centrifuged at 12,000×g for 20 min at 4° C. The soluble protein lysates were collected from underneath the upper lipid layer with a pipette and transferred to new tubes. Protein concentration was determined using a detergent-compatible Bradford Assay (Pierce).
Protein lysates were denatured in NuPAGE lithium dodecyl sulfate sample buffer (Invitrogen) containing 10% v/v β-mercaptoethanol as a reducing agent. […] The membranes were washed 5 times for 5 minutes in TBST, then visualized using enhanced chemiluminescence (Western Lighting Plus for visualizing CCS and ATP7B, Perkin Elmer; Western Clarity Max for visualizing CTR1 and MT, Bio-Rad) recorded on a BioRad GelDoc imaging station. β-actin was probed to determine equal loading using anti-β-actin (sc-69879, Santa Cruz Biotechnology) and AlexaFluor 647-conjugated anti-mouse IgG (A31571, Molecular Probes) antibodies at 1:5000 and 1:2500 dilutions, respectively, with visualization using fluorescence recorded on a BioRad GelDoc imaging station.

## CNC1=N[N+]2=CC=[N+]3N=C(NCCOCCOCCOC4OC(CO)C(O)C(O)C4NC(C)=O)[S][Cu-2]23[S]1 (centres unmarked) [Gal-Cu(gtsm)]
HepG2 cells
  CF4 fluorescence: increased fluorescence
[1]
  Cu increase relative to basal levels (^63Cu/^31P): does not increase cellular copper beyond basal levels
[2]; 1 mM in PBS (pH 7.4), DLS, error = standard deviation
  number-weighted hydrodynamic diameter: 4.60±0.69 nm
[2]; aqueous buffer
  colloid formation in aqueous buffer: forms colloids
ATP7B
  ATP7B expression in liver: increased

Reference: US11504394B2, “Targeted ionophore-based metal delivery” (The Regents of the University of California, priority 2018, dated 2022)
